Tested on: 885512-296-R-J2-PDC complex spheroid viability
Assay: Anticancer human tumor 885512-296-R-J2-PDC patient-derived breast carcinoma cell line growth inhibition [GQUAD]
Conditions: for IC50: curve of first compound; for viability, T/C: stronger effect = lower value
Outline: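 Tumor cells were grown as complex spheroids with HUVEC endothelial cells and mesenchymal stem cells as stroma. G-quadruplex stabilizers were combined with targeted agents over half-log dilutions from near the clinical Cmax, or from 10 microM.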

[1] = second compound 0.0316 µM, first compound 0.0316 µM
[2] = second compound 0.0316 µM, first compound 0.1 µM
[3] = second compound 0.0316 µM, first compound 0.316 µM
[4] = second compound 0.0316 µM, first compound 1 µM
[5] = second compound 0.0316 µM, first compound 3.16 µM
[6] = second compound 0.0316 µM, first compound 10 µM
[7] = second compound 0.1 µM, first compound 0.0316 µM
[8] = second compound 0.1 µM, first compound 0.1 µM
[9] = second compound 0.1 µM, first compound 0.316 µM
[10] = second compound 0.1 µM, first compound 1 µM
[11] = second compound 0.1 µM, first compound 3.16 µM
[12] = second compound 0.1 µM, first compound 10 µM
[13] = second compound 0.316 µM, first compound 0.0316 µM
[14] = second compound 0.316 µM, first compound 0.1 µM
[15] = second compound 0.316 µM, first compound 0.316 µM
[16] = second compound 0.316 µM, first compound 1 µM
[17] = second compound 0.316 µM, first compound 3.16 µM
[18] = second compound 0.316 µM, first compound 10 µM
[19] = second compound 1 µM, first compound 0.0316 µM
[20] = second compound 1 µM, first compound 0.1 µM
[21] = second compound 1 µM, first compound 0.316 µM
[22] = second compound 1 µM, first compound 1 µM
[23] = second compound 1 µM, first compound 3.16 µM
[24] = second compound 1 µM, first compound 10 µM
[25] = second compound 3.16 µM, first compound 0.0316 µM
[26] = second compound 3.16 µM, first compound 0.1 µM
[27] = second compound 3.16 µM, first compound 0.316 µM
[28] = second compound 3.16 µM, first compound 1 µM
[29] = second compound 3.16 µM, first compound 3.16 µM
[30] = second compound 3.16 µM, first compound 10 µM
[31] = second compound 10 µM, first compound 0.0316 µM
[32] = second compound 10 µM, first compound 0.1 µM
[33] = second compound 10 µM, first compound 0.316 µM
[34] = second compound 10 µM, first compound 1 µM
[35] = second compound 10 µM, first compound 3.16 µM
[36] = second compound 10 µM, first compound 10 µM
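Also: spheroids exposed to the compounds for one week.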
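For viability, T/C in this document: percent of tumor spheroid viability relative to DMSO vehicle control wells.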

COc1cccc2c1C(=O)c1c(O)c3c(c(O)c1C2=O)CC(O)(C(=O)CO)CC3OC1CC(N)C(O)C(C)O1 (stereo unspecified) + CN(C)c1ccc(Nc2c3ccc(NC(=O)CCN4CCCC4)cc3nc3cc(NC(=O)CCN4CCCC4)ccc23)cc1
IC50 (second compound 0.0316 µM): 69.7 nM
IC50 (second compound 0.1 µM): 72.6 nM
IC50 (second compound 0.316 µM): 78.8 nM
IC50 (second compound 1 µM): 76.6 nM
IC50 (second compound 3.16 µM): 70.6 nM
IC50 (second compound 10 µM): < 31.6 nM
viability, T/C [1]: 83.5%
viability, T/C [2]: 29.8%
viability, T/C [3]: 23.5%
viability, T/C [4]: 6.89%
viability, T/C [5]: 0.38%
viability, T/C [6]: 3.01%
viability, T/C [7]: 90.9%
viability, T/C [8]: 31.5%
viability, T/C [9]: 18.5%
viability, T/C [10]: 8.24%
viability, T/C [11]: 1.04%
viability, T/C [12]: 2.8%
viability, T/C [13]: 95.3%
viability, T/C [14]: 35.2%
viability, T/C [15]: 20.9%
viability, T/C [16]: 7.15%
viability, T/C [17]: 1.27%
viability, T/C [18]: 3.37%
viability, T/C [19]: 95%
viability, T/C [20]: 30%
viability, T/C [21]: 26.1%
viability, T/C [22]: 8.92%
viability, T/C [23]: 0.75%
viability, T/C [24]: 3.6%
viability, T/C [25]: 81.5%
viability, T/C [26]: 34.8%
viability, T/C [27]: 18.1%
viability, T/C [28]: 8.3%
viability, T/C [29]: 3.01%
viability, T/C [30]: 2.07%
viability, T/C [31]: 26.5%
viability, T/C [32]: 20%
viability, T/C [33]: 9.35%
viability, T/C [34]: 5.9%
viability, T/C [35]: 0.9%
viability, T/C [36]: 1.52%

CC[C@@]1(O)C(=O)OCc2c1cc1n(c2=O)Cc2cc3c(CN(C)C)c(O)ccc3nc2-1 + Cc1[nH]c2ccc(F)cc2c1-c1nc2c3cccnc3c3ncccc3c2[nH]1
IC50 (second compound 0.0316 µM): 26.3 nM
IC50 (second compound 0.1 µM): 29.7 nM
IC50 (second compound 0.316 µM): 29.9 nM
IC50 (second compound 1 µM): 19.8 nM
IC50 (second compound 3.16 µM): < 0.999 nM
IC50 (second compound 10 µM): < 0.999 nM
viability, T/C (second compound 0.0316 µM, first compound 0.000999 µM): 105%
viability, T/C (second compound 0.0316 µM, first compound 0.00316 µM): 88.5%
viability, T/C (second compound 0.0316 µM, first compound 0.00999 µM): 89.9%
viability, T/C [1]: 41.7%
viability, T/C (second compound 0.0316 µM, first compound 0.0999 µM): 14.9%
viability, T/C [3]: 6.49%
viability, T/C (second compound 0.1 µM, first compound 0.000999 µM): 110%
viability, T/C (second compound 0.1 µM, first compound 0.00316 µM): 101%
viability, T/C (second compound 0.1 µM, first compound 0.00999 µM): 98.5%
viability, T/C [7]: 46.9%
viability, T/C (second compound 0.1 µM, first compound 0.0999 µM): 10.7%
viability, T/C [9]: 4.48%
viability, T/C (second compound 0.316 µM, first compound 0.000999 µM): 96%
viability, T/C (second compound 0.316 µM, first compound 0.00316 µM): 101%
viability, T/C (second compound 0.316 µM, first compound 0.00999 µM): 87.3%
viability, T/C [13]: 48.3%
viability, T/C (second compound 0.316 µM, first compound 0.0999 µM): 11.2%
viability, T/C [15]: 3.51%
viability, T/C (second compound 1 µM, first compound 0.000999 µM): 68.2%
viability, T/C (second compound 1 µM, first compound 0.00316 µM): 74.6%
viability, T/C (second compound 1 µM, first compound 0.00999 µM): 72%
viability, T/C [19]: 35.7%
viability, T/C (second compound 1 µM, first compound 0.0999 µM): 9.71%
viability, T/C [21]: 3.76%
viability, T/C (second compound 3.16 µM, first compound 0.000999 µM): 14.8%
viability, T/C (second compound 3.16 µM, first compound 0.00316 µM): 23.3%
viability, T/C (second compound 3.16 µM, first compound 0.00999 µM): 14%
viability, T/C [25]: 6.97%
viability, T/C (second compound 3.16 µM, first compound 0.0999 µM): 2.52%
viability, T/C [27]: 2.01%
viability, T/C (second compound 10 µM, first compound 0.000999 µM): 1.29%
viability, T/C (second compound 10 µM, first compound 0.00316 µM): 2.13%
viability, T/C (second compound 10 µM, first compound 0.00999 µM): 1.51%
viability, T/C [31]: 1.58%
viability, T/C (second compound 10 µM, first compound 0.0999 µM): 1.12%
viability, T/C [33]: 0.82%

O=C(NO)c1cnc(N2CCN(S(=O)(=O)c3ccc4ccccc4c3)CC2)nc1 + CN(C)c1ccc(Nc2c3ccc(NC(=O)CCN4CCCC4)cc3nc3cc(NC(=O)CCN4CCCC4)ccc23)cc1
IC50 (second compound 0.0316 µM): 136 nM
IC50 (second compound 0.1 µM): 160 nM
IC50 (second compound 0.316 µM): 152 nM
IC50 (second compound 1 µM): 149 nM
IC50 (second compound 3.16 µM): 100 nM
IC50 (second compound 10 µM): < 31.6 nM
viability, T/C [1]: 89.6%
viability, T/C [2]: 61.1%
viability, T/C [3]: 20%
viability, T/C [4]: 3.35%
viability, T/C [5]: 0.33%
viability, T/C [6]: 0.17%
viability, T/C [7]: 90.8%
viability, T/C [8]: 67.4%
viability, T/C [9]: 25.1%
viability, T/C [10]: 3.87%
viability, T/C [11]: 0.15%
viability, T/C [12]: 0.11%
viability, T/C [13]: 84.1%
viability, T/C [14]: 63.9%
viability, T/C [15]: 25.8%
viability, T/C [16]: 3.96%
viability, T/C [17]: 0.19%
viability, T/C [18]: 0.24%
viability, T/C [19]: 74.8%
viability, T/C [20]: 65.2%
viability, T/C [21]: 21.4%
viability, T/C [22]: 5.44%
viability, T/C [23]: 0.13%
viability, T/C [24]: 0.56%
viability, T/C [25]: 60.2%
viability, T/C [26]: 50.6%
viability, T/C [27]: 21.1%
viability, T/C [28]: 5.9%
viability, T/C [29]: 0.29%
viability, T/C [30]: 0.11%
viability, T/C [31]: 15.4%
viability, T/C [32]: 15.4%
viability, T/C [33]: 9.93%
viability, T/C [34]: 3.09%
viability, T/C [35]: 0.66%
viability, T/C [36]: 0.31%
